Measured values taken from patent US8809368B2, “Compounds affecting gap junction activity” (Kansas State University Research Foundation, priority 2006, dated 2014).

Test system: active caspase 3
Experiment: Western blot of active caspase 3 in T47D cells
Format: cell-based, human
Description: T47D cells were treated with 0, 200 nM, 500 nM and 1 μM PQ1 for 24 hours. Treatment with succinic acid was used as control. Western blot analysis was performed. Nitrocellulose membrane was blotted with the active form of caspase 3 antibodies (16 kDa). Actin acts as loading control. Graphical presentation of three experiments are presented with statistical significance, p<0.05.
Western Blot analysis: Cells were grown in RPMI media until they were 90% confluent in 75 cm2 flasks. Cells were dosed with 200, 500 nM of PQ1 for 24 hours. Cells were harvested with lysis buffer and centrifugated. Cell lysate was run on a 12% SDSpolyacrylamide gel electrophoresis (PAGE) and transferred to nitrocellulose membrane. Membrane was incubated with Caspase Antibody. Western blots were detected by enhanced chemiluminescence detection reagents.
The effect of PQ1 on apoptosis was further examined by detecting the active form of caspase 3. T47D cells were treated with […] PQ1 for 24 hours. Western blot analysis was performed using active form of caspase 3 antibodies. A 200 nM PQ1 causes 1.5-fold increase of active caspase 3 compared to control (FIG. 18). However, a decrease of caspase is observed in higher concentrations, a common effect in apoptotic protein expression. This is due to the cytotoxicity response of the cells.
Western Blot Analysis. Cells were grown in serum supplemented RPMI media until they were 90% confluent in 75 cm^2 flasks. Cells were kept in starving media containing phenol red-free DMEM with 5% charcoal dextran stripped serum, overnight. Cells were dosed with 0, 10, 100, 200 and 500 nM of PQ1 for 24 hours. Cells were washed three times with cold PBS and then were harvested using lysis buffer (20 mM Tris pH 7.5, 0.5 mM EDTA, 0.5 mM EGTA, 0.5% Triton X-100) with 1:1000 dilution of protease inhibitors (Sigma-Aldrich, Saint Louis, Mo.). Cell lysate was sonicated and centrifuged at 13,000 rpm for 30 minutes at 4° C. […] Western blots were detected by enhanced chemiluminescence detection reagents (Pierce, Rockford, Ill., USA).

COc1cc(NCCCN)c2nccc(C)c2c1Oc1cccc(C(F)(F)F)c1.O=C(O)CCC(=O)O [PQ1, 6-Methoxy-8-[(3-aminopropyl)amino]-4-methyl-5-(3-trifluoromethylphenyloxy) quinoline succinic acid]
increase of active caspase 3 (200 nM, 24 hours, compared to control): 1.5 fold
increase in the expression of active caspase 3 (200 and 500 nM): 50%
active caspase 3 (higher concentrations, 24 hours): decrease
